Experimental data reported in patent US4239747A, “Dicarboxylic acid bis(3,5-dicarbamoyl-2,4,6-triiodoanilides) useful as x-ray contrast agents” (Schering Aktiengesellschaft, priority 1976, dated 1980).
≈ marks a conversion by molar mass, not a printed value. Like-named read-outs stand apart in the source and are kept apart here.

Legend:
mice [1] = assay: Compatibility after intravenous injection in mice; assay type: in vivo
mice [2] = assay: Compatibility after intravenous injection in mice; assay type: in vivo; conditions: for Mortality/survival after intravenous injection: 6-10 mice, 10 g. iodine/kg, 300 mg. iodine/ml., 0.8 ml./min.
Procedure: 1. Compatibility After Intravenous Injection
Each of 6-10 mice weighing 20-22 g. was injected intravenously with the contrast medium being tested in the form of a solution at a concentration of 300 mg. of iodine/ml., a dosage of 10 g. iodine/kg. and an injection rate of 0.8 ml./min. Ionic agents were given as meglumine salts.

proteins of human plasma = assay: Protein binding, human plasma (ultrafiltration method); assay type: in vitro ADME; conditions: n = 6; 1.2 mg. Iodine/ml.; ultrafiltration
Procedure: (§1) Binding of contrast media to proteins of human plasma was determined at a final plasma concentration of 1.2 mg. iodine/ml. using the ultrafiltration method. The novel, nonionic dimer E was bound only to a very minor extent of 1.4±2.4%.

[3] = as above; assay type: in vitro ADME; conditions: human, plasma
Procedure: as §1

Solubility in water = assay type: physicochemical; conditions: for solubility: water
rats = assay type: in vivo; conditions: 10 rats; 50 mg. iodine/ml.; 0.4 ml./kg.
Procedure: In a further evaluation according to Valzelli, "A Simple Method to Inject Drugs Intracerebrally;" Med. Exp. Vol. 11: 23-26, (1964), each of 10 rats (90-110 g.) were injected intracerebrally with contrast medium solutions of compounds A-E at an iodine concentration of 50 mg./ml. in a dosage of 0.4 ml./kg. Toxic effects of compounds A-D included grave anomalies in posture (attitude), torsional spasms, excitation, and death.

erythrocytes = assay: Effect of the contrast media on erythrocyte morphology; conditions: 43 mg. Iodine/ml. Blood; score 0 (intact) to 5 (highest damage)
Procedure: Contrast medium solutions containing 300 mg. iodine/ml. were mixed in a ratio of 1:6 with heparinized blood. The final concentration of the contrast media was 43 mg. iodine/ml. The evaluation criterion was the change of the natural shape of the erythrocytes via echinocytes to spherocytes.

[4] = Osmotic pressure and osmolality of solutions of identical iodine concentration (300 mg. Iodine/ml.); assay type: physicochemical; conditions: at 37° C.
Text: The novel compounds are distinguished from other compounds by a lower diffusibility on account of their size.
Concentration, Osmotic Pressure, and Osmolality of Solutions of Identical

[5] = background statement; cited from earlier work
[6] = background statement; cited from earlier work; remark: listed apart in the source
[7] = n = 6, 1.2 mg. Iodine/ml., ultrafiltration, read-out: Protein Binding Human Plasma (converted)

Row | Structure (SMILES) | Compatibility After i.v. Injection in Mice, LD50 (mice [1]) | fraction unbound [3, 7] | Effect on Erythrocyte Morphology, Damage Index (erythrocytes) | Osmolality [4] | Osmotic Pressure [4] | solubility (Solubility in water) | also measured
1 | CN(CC(O)CO)C(=O)c1c(I)c(NC(=O)C(=O)Nc2c(I)c(C(=O)N(C)CC(O)CO)c(I)c(C(=O)N(C)CC(O)CO)c2I)c(I)c(C(=O)N(C)CC(O)CO)c1I (stereo not drawn) [Example 1, oxalic acid bis[3,5-bis(2,3-dihydroxypropyl-N-methylcarbamoyl)-2,4,6-triiodoanilide]] | 20 g. Iodine/kg. | 0.986 | 0.33 | 175 mOsm/kg . H2 O | 4.5 at. |  | Mortality/survival after intravenous injection (mice [2]): All mice survived; Protein Binding Human Plasma (proteins of human plasma): 1.4±2.4%; solubility (Solubility in water; room temperature): > 600 mg/mL; Toxic effects after intracerebral injection (rats): caused none of these effects in any of the animals
2 | CN(CC(O)CO)C(=O)c1c(I)c(C(=O)N(C)CC(O)CO)c(I)c(N(C)C(=O)COCC(=O)N(C)c2c(I)c(C(=O)N(C)CC(O)CO)c(I)c(C(=O)N(C)CC(O)CO)c2I)c1I (stereo not drawn) [Example 8, Oxaglutaric Acid bis[3,5-bis(2,3-Dihydroxypropyl-N-methylcarbamoyl)-2,4,6-triiodo-N-methylanilide]] | 10 g. Iodine/kg. |  | 0.09 |  |  | > 600 mg/mL | 
3 | CN(CC(O)CO)C(=O)c1c(I)c(C(=O)N(C)CC(O)CO)c(I)c(N(C)C(=O)CC(=O)N(C)c2c(I)c(C(=O)N(C)CC(O)CO)c(I)c(C(=O)N(C)CC(O)CO)c2I)c1I (stereo not drawn) [Example 9, Malonic Acid bis[3,5-bis(2,3-Dihydroxypropyl-N-methylcarbamoyl)-2,4,6-triiodo-N-methylanilide]] |  |  |  | 197 mOsm/kg . H2 O | 5.0 at. |  | Solubility in water (Solubility in water): more than 60 g./150 ml. of solution
4 | CN(CC(O)CO)C(=O)c1c(I)c(NC(=O)CCCCC(=O)Nc2c(I)c(C(=O)N(C)CC(O)CO)c(I)c(C(=O)N(C)CC(O)CO)c2I)c(I)c(C(=O)N(C)CC(O)CO)c1I (stereo not drawn) [Example 10, Adipic Acid bis[3,5-bis(2,3-Dihydroxypropyl-N-methylcarbamoyl)-2,4,6-triiodoanilide]] |  |  | 0.11 |  |  | 130 mg/mL (≈ 82.5 mM) | Compatibility After i.v. Injection in Mice, LD50 (mice [2]; i.v., mice, determined with supersaturated solution): 30 g. Iodine/kg.; Solubility behaviour in words (Solubility in water): yields supersaturated solutions
5 | O=C(CCCCC(=O)Nc1c(I)c(C(=O)NC(CO)CO)c(I)c(C(=O)NC(CO)CO)c1I)Nc1c(I)c(C(=O)NC(CO)CO)c(I)c(C(=O)NC(CO)CO)c1I [Example 11, Adipic Acid bis[3,5-bis(1,3-Dihydroxyisopropylcarbamoyl)-2,4,6-triiodoanilide]] |  |  |  |  |  | < 1 mg/mL | 
6 | CN(CC(O)CO)C(=O)c1c(I)c(NC(=O)COCCOCC(=O)Nc2c(I)c(C(=O)N(C)CC(O)CO)c(I)c(C(=O)N(C)CC(O)CO)c2I)c(I)c(C(=O)N(C)CC(O)CO)c1I (stereo not drawn) [Example 12, 3,6-Dioxasuberic Acid bis[3,5-bis(2,3-Dihydroxypropyl-N-methylcarbamoyl)-2,4,6-triiodoanilide]] | 22 g. Iodine/kg. |  | 0.13 | 216 mOsm/kg . H2 O | 5.5 at. |  | 
7 | CC(=O)Nc1c(I)c(NC(C)=O)c(I)c(C(=O)O)c1I [Meglumine Amidotrizoate] | 6.5 g. Iodine/kg. | 0.968 | 2.57 | 1520 mOsm/kg . H2 O | 38.6 at. |  | 
8 | CNC(=O)c1c(I)c(NC(=O)CCCCC(=O)Nc2c(I)c(C(=O)O)c(I)c(C(=O)NC)c2I)c(I)c(C(=O)O)c1I [Meglumine Iocarmate] | 6.5 g. Iodine/kg. | 0.908 | 1.37 | 1260 mOsm/kg . H2 O | 32.0 at. |  | Resulting concentration in the urine [5]: relatively high resulting concentration in the urine; Osmotic pressure, relative [6]: somewhat lower osmotic pressure
9 | CNC(=O)c1c(I)c(NC(C)=O)c(I)c(C(=O)O)c1I [Meglumine Iothalamate] | 6.5 g. Iodine/kg. |  |  | 1650 mOsm/kg . H2 O | 41.9 at. |  | fraction unbound [3]: 0.948
10 | CC(=O)Nc1c(I)c(C(=O)N[C@H]2C(O)O[C@H](CO)[C@@H](O)[C@@H]2O)c(I)c(N(C)C(C)=O)c1I (stereo partly drawn) [Metrizamide, 2-(3-acetamido-5-N-methylacetamido-2,4,6-triiodobenzamido)-2-deoxy-D-glucose] | 14 g. Iodine/kg. |  |  | 485 mOsm/kg . H2 O | 12.3 at. |  | Mortality/survival after intravenous injection (mice [2]): one animal died; fraction unbound [3]: 0.938
